From patent publication US20250163104A1, “MACROCYCLIC IMMUNOMODULATORS” (priority 2021, published 2025) come the findings set out here.

This assay concerns the target T1, human PD-1 / PD-L1-Ig binding on Jurkat cell line over-expressing human PD-1 (Jurkat-PD-1) (Homo sapiens, UniProt Q15116).
T1 construct: expressed in transfected cells; host or cells: Jurkat
Nature of the assay: Jurkat-PD-1 Cell Binding High-Content Screening Assay (CBA). The format is cell-based. As to conditions: Jurkat-PD-1 cells, PE-labeled PD-L1-Ig 20 nM final; read-out: Jurkat HPD1_PDL1 IC50. Summed up: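 Read-out: high-content imaging of PE-tagged PD-L1-Ig bound to Jurkat cells overexpressing human PD-1, after fixation with 4% paraformaldehyde and Hoechst 33342 nuclear staining. Ligand was used at 20 nM final for 1 hour, after a 2 h compound exposure at 37° C in serum-containing DMEM.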

Where a SMILES comes first, the peptide text is derived from it. Bridges are numbered along the chain shown (N, C = ends). [ ]: non-standard residue; d: D form. The star is where a group is joined. ξ: configuration not given here. Phe(4-COOH) = N[C@@H](Cc1ccc(C(=O)O)cc1)C(=O)O; Phe(3,4-F2) = N[C@@H](Cc1ccc(F)c(F)c1)C(=O)O; Bip = N[C@@H](Cc1ccc(-c2ccccc2)cc1)C(=O)O; Phe(3-Me) = Cc1cccc(C[C@H](N)C(=O)O)c1; Phe(2-Me) = Cc1ccccc1C[C@H](N)C(=O)O; d(aThr) = C[C@@H](O)[C@@H](N)C(=O)O; Val(3-OH) = CC(C)(O)[C@H](N)C(=O)O; 4Pal = N[C@@H](Cc1ccncc1)C(=O)O; Cha = N[C@@H](CC1CCCCC1)C(=O)O; Cit = NC(=O)NCCC[C@H](N)C(=O)O; Carboxymethyl = O=C(O)C*; Orn = NCCC[C@H](N)C(=O)O; Dab = NCC[C@H](N)C(=O)O; Dap = NC[C@H](N)C(=O)O; ξPra = C#CCC(N)C(=O)O; CF3 = FC(F)(F)*

T1 sequence (Q15116 25-288): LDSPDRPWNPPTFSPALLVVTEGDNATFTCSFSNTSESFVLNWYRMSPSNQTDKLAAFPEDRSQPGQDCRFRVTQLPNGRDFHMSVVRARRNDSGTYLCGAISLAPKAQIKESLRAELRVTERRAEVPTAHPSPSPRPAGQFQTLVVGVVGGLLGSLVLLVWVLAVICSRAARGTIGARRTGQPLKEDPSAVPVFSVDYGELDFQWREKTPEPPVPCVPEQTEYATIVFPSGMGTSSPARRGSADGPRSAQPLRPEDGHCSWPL

As to `CC(C)C[C@H]1NC(=O)[C@H](CCCN)NC(=O)[C@H](CCCNC(N)=O)NC(=O)[C@H](Cc2ccc(-c3ccccc3)cc2)NC(=O)[C@H](C(C)C)NC(=O)[C@H](Cc2c[nH]c3ccccc23)NC(=O)[C@H](CC(=O)O)NC(=O)[C@H](Cc2ccc(F)c(F)c2)NC(=O)[C@H](CN)NC(=O)CSC[C@@H](C(=O)N[C@@H](C)C(N)=O)NC(=O)[C@H]([C@@H](C)O)NC(=O)[C@H](C(C)C)NC(=O)[C@H](CC2CCCCC2)NC(=O)[C@H](CCN)NC1=O` [Compound 2129] ({CH2CO}-[Dap][Phe(3,4-F2)]DWV[Bip][Cit][Orn][dL][Dab][Cha]VTCA-NH2; thioether N-14), the IC50 (in general, the concentration that gives 50% inhibition) amounted to 48.2 nM.

For the compound `CCCC[C@H]1NC(=O)[C@H](CCCN)NC(=O)[C@H](CCCNC(N)=O)NC(=O)[C@H](Cc2ccc(-c3ccccc3)cc2)NC(=O)[C@H](C(C)C)NC(=O)[C@H](Cc2c[nH]c3ccccc23)NC(=O)[C@H](CC(=O)O)NC(=O)[C@H](Cc2ccc(OCC(=O)O)cc2)NC(=O)[C@H](Cc2ccc(OCC(=O)O)cc2)NC(=O)CSC[C@@H](C(=O)N[C@@H](C)C(N)=O)NC(=O)[C@H]([C@@H](C)O)NC(=O)[C@H](C(C)C)NC(=O)[C@H](CC2CCCCC2)NC(=O)[C@H](CCN)NC1=O` [Compound 1698], the IC50 was determined as 32.3 nM.

Take `Cc1cccc(C[C@@H]2NC(=O)[C@H](CC(=O)O)NC(=O)[C@H](Cc3ccc(OC(F)(F)F)cc3)NC(=O)[C@H](CCN)NC(=O)CSC[C@@H](C(=O)N[C@@H](CCN)C(N)=O)NC(=O)[C@H](CCC(=O)O)NC(=O)[C@H](C(C)(C)O)NC(=O)[C@H](CC3CCCCC3)NC(=O)[C@H](CCN)NC(=O)[C@@H](CC(C)C)NC(=O)[C@H](CCCN)NC(=O)[C@H](Cc3ccc(OCC(=O)O)cc3)NC(=O)[C@H](Cc3ccc(-c4ccccc4)cc3)NC(=O)[C@H](Cc3ccc(OCC(=O)O)cc3)NC2=O)c1` [Compound 2693] ({CH2CO}-[Dab]Y(CF3)D[Phe(3-Me)]Y(Carboxymethyl)[Bip]Y(Carboxymethyl)[Orn][dL][Dab][Cha][Val(3-OH)]EC[Dab]-NH2; thioether N-14): the half-maximal inhibitory concentration (IC50) was found to be 42.4 nM.

For the compound `CC(C)C[C@@H]1NC(=O)[C@H](CCN)NC(=O)[C@@H](CC(C)C)NC(=O)[C@H](CCCN)NC(=O)[C@H](C(C)C)NC(=O)[C@H](Cc2ccc(-c3ccccc3)cc2)NC(=O)[C@H](C(C)C)NC(=O)[C@H](Cc2c[nH]c3ccccc23)NC(=O)[C@H](CC(=O)O)NC(=O)[C@H](Cc2ccc(OCC(=O)O)cc2)NC(=O)[C@H](CN)NC(=O)CSC[C@@H](C(=O)N[C@@H](C)C(N)=O)NC(=O)[C@H]([C@@H](C)O)NC(=O)[C@H](C(C)C)NC1=O` [Compound 1048] ({CH2CO}-[Dap]Y(Carboxymethyl)DWV[Bip]V[Orn][dL][Dab]LVTCA-NH2; thioether N-14), the IC50 is 13.7 nM.

As to `COc1ccc(C[C@@H]2NC(=O)[C@H](CC(=O)O)NC(=O)[C@H](Cc3ccc(OCC(=O)O)cc3)NC(=O)[C@H](CN)NC(=O)CSC[C@@H](C(=O)N[C@@H](C)C(N)=O)NC(=O)[C@H]([C@@H](C)O)NC(=O)[C@H](C(C)C)NC(=O)[C@H](CC3CCCCC3)NC(=O)[C@H](CCN)NC(=O)[C@@H](CC(C)C)NC(=O)[C@H](CCCN)NC(=O)[C@H](CCC(=O)O)NC(=O)[C@H](Cc3ccc(-c4ccccc4)cc3)NC(=O)[C@H](C(C)C)NC2=O)cc1` [Compound 2140] ({CH2CO}-[Dap]Y(Carboxymethyl)DY(Me)V[Bip]E[Orn][dL][Dab][Cha]VTCA-NH2; thioether N-14), the IC50 turned out to be 478 nM.

With `CC(C)C[C@@H]1NC(=O)[C@H](Cc2c[nH]c3ccccc23)NC(=O)[C@H](CC(=O)O)NC(=O)[C@H](Cc2ccc(O)cc2)NC(=O)[C@H](Cc2ccccc2)NC(=O)CSC[C@@H](C(=O)N[C@@H](C)C(N)=O)NC(=O)[C@H]([C@@H](C)O)NC(=O)[C@H](C(C)C)NC(=O)[C@H](CC(C)C)NC(=O)[C@H](CCN)NC(=O)[C@@H](C)NC(=O)[C@H](CN)NC(=O)[C@H](C(C)C)NC(=O)[C@H](Cc2ccc(-c3ccccc3)cc2)NC1=O` [Compound 1097] ({CH2CO}-FYDWL[Bip]V[Dap][dA][Dab]LVTCA-NH2; thioether N-14), the IC50 came to 132 nM.

Regarding `CCC(C)[C@@H]1NC(=O)[C@H](Cc2ccc(-c3ccccc3)cc2)NC(=O)[C@H](C(C)C)NC(=O)[C@H](Cc2cc(C)ccc2OC)NC(=O)[C@H](CC(=O)O)NC(=O)[C@H](Cc2ccc(OCC(=O)O)cc2)NC(=O)[C@H](CN)NC(=O)CSC[C@@H](C(=O)N[C@@H](C)C(N)=O)NC(=O)[C@H]([C@@H](C)O)NC(=O)[C@H](C(C)C)NC(=O)[C@H](CC2CCCCC2)NC(=O)[C@H](CCN)NC(=O)[C@@H](CC(C)C)NC(=O)[C@H](CCCN)NC1=O` (some centres unmarked) [Compound 2249], the IC50 was found to be 134 nM.

As to `Cc1ccccc1C[C@@H]1NC(=O)[C@H](CCN)NC(=O)[C@@H](CC(C)C)NC(=O)[C@H](CCCN)NC(=O)[C@H](CCC(=O)O)NC(=O)[C@H](Cc2ccc(-c3ccccc3)cc2)NC(=O)[C@H](C(C)C)NC(=O)[C@H](Cc2c[nH]c3ccccc23)NC(=O)[C@H](CC(=O)O)NC(=O)[C@H](Cc2ccc(OCC(=O)O)cc2)NC(=O)[C@H](CN)NC(=O)CSC[C@@H](C(=O)N[C@@H](C)C(N)=O)NC(=O)[C@H]([C@@H](C)O)NC(=O)[C@H](C(C)C)NC1=O` [Compound 1484] ({CH2CO}-[Dap]Y(Carboxymethyl)DWV[Bip]E[Orn][dL][Dab][Phe(2-Me)]VTCA-NH2; thioether N-14), the half-maximal inhibitory concentration (IC50) amounted to 12.3 nM.

In the case of `C#CCC(NC(=O)[C@H](CN)NC(=O)[C@@H]1CSCC(=O)N[C@@H](Cc2ccncc2)C(=O)N[C@@H](Cc2ccc(OCC(=O)O)cc2)C(=O)N[C@@H](CC(=O)O)C(=O)N[C@@H](Cc2c[nH]c3ccccc23)C(=O)N[C@@H](C(C)C)C(=O)N[C@@H](Cc2ccc(-c3ccccc3)cc2)C(=O)N[C@@H]([C@@H](C)CC)C(=O)N[C@@H](CCCN)C(=O)N[C@H](CC(C)C)C(=O)N[C@@H](CCN)C(=O)N[C@@H](CC(C)C)C(=O)N[C@@H](C(C)C)C(=O)N[C@@H]([C@@H](C)O)C(=O)N1)C(N)=O` (stereo partly drawn) [Compound 1764] ({CH2CO}-[4Pal]Y(Carboxymethyl)DWV[Bip]I[Orn][dL][Dab]LVTC[Dap][ξPra]-NH2; thioether N-14), the IC50 came out at 33.1 nM.

On to `CC(C)C[C@H]1NC(=O)[C@H](CN)NC(=O)[C@H](C(C)C)NC(=O)[C@H](Cc2ccc(-c3ccccc3)cc2)NC(=O)[C@H](C(C)C)NC(=O)[C@H](Cc2c[nH]c3ccccc23)NC(=O)[C@H](CC(=O)O)NC(=O)[C@H](Cc2ccc(C(=O)O)cc2)NC(=O)[C@H](Cc2ccc(OCC(=O)O)cc2)NC(=O)CSC[C@@H](C(=O)NCC(N)=O)NC(=O)[C@H](CO)NC(=O)[C@H](C(C)C)NC(=O)[C@H](CC2CCCCC2)NC(=O)[C@H](CC(N)=O)NC1=O` [Compound 1413] ({CH2CO}-Y(Carboxymethyl)[Phe(4-COOH)]DWV[Bip]V[Dap][dL]N[Cha]VSCG-NH2; thioether N-14), for which the half-inhibitory concentration (IC50) worked out at 8.8 nM.

Take `CC(C)C[C@@H]1NC(=O)[C@H](CCN)NC(=O)[C@@H](CC(C)C)NC(=O)[C@H](Cc2ccc(O)cc2)NC(=O)[C@H](C(C)C)NC(=O)[C@H](Cc2ccc(-c3ccccc3)cc2)NC(=O)[C@@H](C(C)C)NC(=O)[C@H](Cc2c[nH]c3ccccc23)NC(=O)[C@H](CC(=O)O)NC(=O)[C@H](Cc2ccc(O)cc2)NC(=O)[C@H](CC(N)=O)NC(=O)CSC[C@@H](C(=O)N[C@@H](C)C(N)=O)NC(=O)[C@@H]([C@@H](C)O)NC(=O)[C@H](C(C)C)NC1=O` [Compound 1031] ({CH2CO}-NYDW[dV][Bip]VY[dL][Dab]LV[d(aThr)]CA-NH2; thioether N-14): the IC50 came to 87.4 nM.
